Measurements from ChEMBL document CHEMBL4371034, “Design, synthesis, biological evaluation, structure-activity relationship, and toxicity of clinafloxacin-azole conjugates as novel antitubercular agents” (Bioorg Med Chem, 2019).
Values after ≈ are worked out from the molar mass of the structure shown. Active and inactive are the calls of the source. No cut-off for these calls is given here.

How the values were obtained:
[1] = target: Voltage-gated inwardly rectifying potassium channel KCNH2 (Homo sapiens, UniProt Q12809); assay: Inhibition of human ERG
Voltage-gated inwardly rectifying potassium channel KCNH2, sequence (Q12809 whole entry): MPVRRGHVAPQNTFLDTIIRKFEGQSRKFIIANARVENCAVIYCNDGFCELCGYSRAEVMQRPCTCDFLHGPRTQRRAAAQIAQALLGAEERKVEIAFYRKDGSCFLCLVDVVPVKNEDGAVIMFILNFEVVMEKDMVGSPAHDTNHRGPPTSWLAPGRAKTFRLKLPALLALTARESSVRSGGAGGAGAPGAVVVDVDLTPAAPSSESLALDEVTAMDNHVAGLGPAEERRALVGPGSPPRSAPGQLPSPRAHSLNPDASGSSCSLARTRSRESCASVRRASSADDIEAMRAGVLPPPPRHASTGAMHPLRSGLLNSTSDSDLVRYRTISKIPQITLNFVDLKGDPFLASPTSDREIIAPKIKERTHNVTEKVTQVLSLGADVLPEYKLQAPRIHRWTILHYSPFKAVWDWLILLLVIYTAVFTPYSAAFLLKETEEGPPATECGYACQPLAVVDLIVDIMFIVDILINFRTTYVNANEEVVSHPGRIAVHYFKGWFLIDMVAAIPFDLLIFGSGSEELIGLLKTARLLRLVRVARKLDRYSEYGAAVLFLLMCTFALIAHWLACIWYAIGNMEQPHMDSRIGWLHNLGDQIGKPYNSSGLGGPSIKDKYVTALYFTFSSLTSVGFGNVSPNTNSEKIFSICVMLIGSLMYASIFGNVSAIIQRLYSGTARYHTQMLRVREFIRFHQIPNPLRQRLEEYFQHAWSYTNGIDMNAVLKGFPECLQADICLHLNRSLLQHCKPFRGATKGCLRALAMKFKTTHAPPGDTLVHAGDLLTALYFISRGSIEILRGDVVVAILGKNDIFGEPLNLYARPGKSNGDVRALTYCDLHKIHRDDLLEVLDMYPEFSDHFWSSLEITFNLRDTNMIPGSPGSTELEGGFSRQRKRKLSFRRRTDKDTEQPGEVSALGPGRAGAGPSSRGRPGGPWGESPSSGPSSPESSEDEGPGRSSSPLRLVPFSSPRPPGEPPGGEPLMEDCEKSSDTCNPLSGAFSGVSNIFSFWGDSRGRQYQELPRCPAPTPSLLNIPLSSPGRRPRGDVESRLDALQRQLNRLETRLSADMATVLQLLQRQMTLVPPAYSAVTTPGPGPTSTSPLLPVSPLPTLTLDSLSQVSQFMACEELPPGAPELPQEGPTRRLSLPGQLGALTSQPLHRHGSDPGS

[2] = test system: Mycobacterium tuberculosis; assay: Antitubercular activity against Mycobacterium tuberculosis H37Rv after 6 days by […]; assay type: functional; conditions: 144 h
Escherichia coli [3] = assay: Antibacterial activity against duck Escherichia coli clinical isolates measured after 120 days of sample dissolution by serial dilution method; assay type: functional
Staphylococcus aureus [4] = assay: Antibacterial activity against Staphylococcus aureus ATCC 29213 measured after 120 days of sample dissolution by serial dilution method; assay type: functional
Escherichia coli [5] = assay: Antibacterial activity against duck Escherichia coli clinical isolates assessed as diameter of zone of inhibition at 80 ug/ml after 18 hrs by agar diffusion method; assay type: functional; conditions: for zone of inhibition at 80 µg/mL: read-out: DIZ
Pseudomonas aeruginosa [6] = assay: Antibacterial activity against Pseudomonas aeruginosa PS1.0050 assessed as diameter of zone of inhibition at 80 ug/ml after 18 hrs by agar diffusion method; assay type: functional; conditions: for zone of inhibition at 80 µg/mL: PS1.0050, 18 h, read-out: DIZ
[7] = test system: Mycobacterium tuberculosis; assay: Antitubercular activity against Mycobacterium tuberculosis H37Rv assessed as growth inhibition at 20 uM after 6 days by […]; assay type: functional; conditions: 144 h, read-out: GI
[8] = Cytotoxicity against human HeLa cells assessed as growth inhibition at 20 uM by Celltiter-Glo luminescence assay; assay type: cell-based; conditions: read-out: GI
Salmonella [9] = assay: Antibacterial activity against Salmonella S1.1152 assessed as diameter of zone of inhibition at 80 ug/ml after 18 hrs by agar diffusion method; assay type: functional; conditions: for zone of inhibition at 80 µg/mL: S1.1152, 18 h, read-out: DIZ
Salmonella [10] = assay: Antibacterial activity against Salmonella S1.1152 measured after 120 days of sample dissolution by serial dilution method; assay type: functional
Staphylococcus aureus [11] = assay: Antibacterial activity against Staphylococcus aureus ATCC 29213 assessed as diameter of zone of inhibition at 80 ug/ml after 18 hrs by agar diffusion method; assay type: functional; conditions: for zone of inhibition at 80 µg/mL: ATCC 29213, 18 h, read-out: DIZ
Pseudomonas aeruginosa [12] = assay: Antibacterial activity against Pseudomonas aeruginosa PS1.0050 measured after 120 days of sample dissolution by serial dilution method; assay type: functional
HeLa = assay: Cytotoxicity against human HeLa cells by Celltiter-Glo luminescence assay; assay type: cell-based

## O=C(Cn1cccn1)NC1CCN(c2c(F)cc3c(=O)c(C(=O)O)cn(C4CC4)c3c2Cl)C1 (centres undefined)
[1]
  IC50: > 1000 nM

## Nc1ccn(CC(=O)NC2CCN(c3c(F)cc4c(=O)c(C(=O)O)cn(C5CC5)c4c3Cl)C2)n1 (centres undefined)
[2]
  MIC: 1.69 µM (≈ 0.826 µg/mL)
[1]
  IC50: > 1000 nM
Escherichia coli [3]
  MIC: > 16 µg/mL
Staphylococcus aureus [4]
  MIC: 16 µg/mL (≈ 32.7 µM)
Escherichia coli [5]
  zone of inhibition at 80 µg/mL: 23 mm
Pseudomonas aeruginosa [6]
  zone of inhibition at 80 µg/mL: 25 mm
[7]
  inhibition of growth at 20 µM: 98.5%
[8]
  inhibition at 20 µM: -17.1%
Salmonella [9]
  zone of inhibition at 80 µg/mL: 23 mm
Salmonella [10]
  MIC: 16 µg/mL (≈ 32.7 µM)
Staphylococcus aureus [11]
  zone of inhibition at 80 µg/mL: 23 mm
Pseudomonas aeruginosa [12]
  MIC: 2 µg/mL (≈ 4.09 µM)

## O=C(Cn1ccnn1)NC1CCN(c2c(F)cc3c(=O)c(C(=O)O)cn(C4CC4)c3c2Cl)C1 (centres undefined)
[2]
  MIC: 2.28 µM (≈ 1.08 µg/mL)
[1]
  IC50: > 1000 nM
Escherichia coli [3]
  MIC: > 16 µg/mL
Staphylococcus aureus [4]
  MIC: 4 µg/mL (≈ 8.42 µM)
Escherichia coli [5]
  zone of inhibition at 80 µg/mL: 16 mm
Pseudomonas aeruginosa [6]
  zone of inhibition at 80 µg/mL: 19 mm
[7]
  inhibition of growth at 20 µM: 98.5%
[8]
  inhibition at 20 µM: -10.1%
Salmonella [9]
  zone of inhibition at 80 µg/mL: 19 mm
Salmonella [10]
  MIC: 16 µg/mL (≈ 33.7 µM)
Staphylococcus aureus [11]
  zone of inhibition at 80 µg/mL: 17 mm
Pseudomonas aeruginosa [12]
  MIC: 1 µg/mL (≈ 2.11 µM)

## O=C(Cn1ccnc1)NC1CCN(c2c(F)cc3c(=O)c(C(=O)O)cn(C4CC4)c3c2Cl)C1 (centres undefined)
[1]
  IC50: > 1000 nM

## O=C(CSc1nc2ccccc2[nH]1)NC1CCN(c2c(F)cc3c(=O)c(C(=O)O)cn(C4CC4)c3c2Cl)C1 (centres undefined)
[1]
  IC50: > 1000 nM

## O=C(CCn1nccn1)NC1CCN(c2c(F)cc3c(=O)c(C(=O)O)cn(C4CC4)c3c2Cl)C1 (centres undefined)
[1]
  IC50: > 1000 nM

## Cc1nccn1CC(=O)NC1CCN(c2c(F)cc3c(=O)c(C(=O)O)cn(C4CC4)c3c2Cl)C1 (centres undefined)
[1]
  IC50: > 1000 nM

## Cc1nnn(CC(=O)NC2CCN(c3c(F)cc4c(=O)c(C(=O)O)cn(C5CC5)c4c3Cl)C2)n1 (centres undefined)
[1]
  IC50: > 1000 nM

## Cc1cn(CCC(=O)NC2CCN(c3c(F)cc4c(=O)c(C(=O)O)cn(C5CC5)c4c3Cl)C2)cn1 (centres undefined)
[1]
  IC50: > 1000 nM

## Cc1cc(C)n(CC(=O)NC2CCN(c3c(F)cc4c(=O)c(C(=O)O)cn(C5CC5)c4c3Cl)C2)n1 (centres undefined)
[1]
  IC50: > 1000 nM

## O=C(Cn1nnc2ccccc21)NC1CCN(c2c(F)cc3c(=O)c(C(=O)O)cn(C4CC4)c3c2Cl)C1 (centres undefined)
[1]
  IC50: > 1000 nM

## Nc1nnn(CCC(=O)NC2CCN(c3c(F)cc4c(=O)c(C(=O)O)cn(C5CC5)c4c3Cl)C2)n1 (centres undefined)
[1]
  IC50: > 1000 nM

## Nc1n[nH]c(SCC(=O)NC2CCN(c3c(F)cc4c(=O)c(C(=O)O)cn(C5CC5)c4c3Cl)C2)n1 (centres undefined)
[2]
  MIC: 0.72 µM (≈ 0.376 µg/mL)
[1]
  IC50: > 1000 nM
Escherichia coli [3]
  MIC: > 16 µg/mL
Staphylococcus aureus [4]
  MIC: 16 µg/mL (≈ 30.7 µM)
Escherichia coli [5]
  zone of inhibition at 80 µg/mL: 14 mm
Pseudomonas aeruginosa [6]
  zone of inhibition at 80 µg/mL: 16 mm
[7]
  inhibition of growth at 20 µM: 98.2%
[8]
  inhibition at 20 µM: -7.2%
Salmonella [9]
  zone of inhibition at 80 µg/mL: 16 mm
Salmonella [10]
  MIC: 16 µg/mL (≈ 30.7 µM)
Staphylococcus aureus [11]
  zone of inhibition at 80 µg/mL: 16 mm
HeLa
  IC50: > 20000 nM
Pseudomonas aeruginosa [12]
  MIC: 8 µg/mL (≈ 15.3 µM)

## Nc1nnc(SCC(=O)NC2CCN(c3c(F)cc4c(=O)c(C(=O)O)cn(C5CC5)c4c3Cl)C2)s1 (centres undefined)
[2]
  MIC: 0.66 µM (≈ 0.356 µg/mL)
[1]
  IC50: > 1000 nM
Escherichia coli [3]
  MIC: > 16 µg/mL
Staphylococcus aureus [4]
  MIC: 8 µg/mL (≈ 14.8 µM)
Escherichia coli [5]
  zone of inhibition at 80 µg/mL: 12 mm
Pseudomonas aeruginosa [6]
  zone of inhibition at 80 µg/mL: 15 mm
[7]
  inhibition of growth at 20 µM: 99%
[8]
  inhibition at 20 µM: -11.2%
Salmonella [9]
  zone of inhibition at 80 µg/mL: 12 mm
Salmonella [10]
  MIC: 16 µg/mL (≈ 29.7 µM)
Staphylococcus aureus [11]
  zone of inhibition at 80 µg/mL: 12 mm
HeLa
  IC50: > 20000 nM
Pseudomonas aeruginosa [12]
  MIC: 4 µg/mL (≈ 7.42 µM)

## O=C(Cn1cncn1)NC1CCN(c2c(F)cc3c(=O)c(C(=O)O)cn(C4CC4)c3c2Cl)C1 (centres undefined)
[1]
  IC50: > 1000 nM

## O=C(CCn1ccnn1)NC1CCN(c2c(F)cc3c(=O)c(C(=O)O)cn(C4CC4)c3c2Cl)C1 (centres undefined)
[2]
  MIC: 2.95 µM (≈ 1.44 µg/mL)
[1]
  IC50: > 1000 nM
Escherichia coli [5]
  diameter of the inhibition zone (DIZ): inactive
Pseudomonas aeruginosa [6]
  zone of inhibition at 80 µg/mL: 14 mm
[7]
  inhibition of growth at 20 µM: 96.9%
[8]
  inhibition at 20 µM: -9.5%
Salmonella [9]
  diameter of the inhibition zone (DIZ): inactive
Staphylococcus aureus [11]
  zone of inhibition at 80 µg/mL: 7 mm
HeLa
  IC50: > 20000 nM

## O=C(Cn1cnc2ccccc21)NC1CCN(c2c(F)cc3c(=O)c(C(=O)O)cn(C4CC4)c3c2Cl)C1 (centres undefined)
[1]
  IC50: > 1000 nM

## O=C(CCn1ccnc1)NC1CCN(c2c(F)cc3c(=O)c(C(=O)O)cn(C4CC4)c3c2Cl)C1 (centres undefined)
[1]
  IC50: > 1000 nM

## O=C(CCn1cncn1)NC1CCN(c2c(F)cc3c(=O)c(C(=O)O)cn(C4CC4)c3c2Cl)C1 (centres undefined)
[1]
  IC50: > 1000 nM

## O=C(CCn1cccn1)NC1CCN(c2c(F)cc3c(=O)c(C(=O)O)cn(C4CC4)c3c2Cl)C1 (centres undefined)
[1]
  IC50: > 1000 nM

## Cc1nnnn1CCC(=O)NC1CCN(c2c(F)cc3c(=O)c(C(=O)O)cn(C4CC4)c3c2Cl)C1 (centres undefined)
[1]
  IC50: > 1000 nM

## Cc1nccn1CCC(=O)NC1CCN(c2c(F)cc3c(=O)c(C(=O)O)cn(C4CC4)c3c2Cl)C1 (centres undefined)
[1]
  IC50: > 1000 nM

## Cc1cc(C)n(CCC(=O)NC2CCN(c3c(F)cc4c(=O)c(C(=O)O)cn(C5CC5)c4c3Cl)C2)n1 (centres undefined)
[1]
  IC50: > 1000 nM

## O=C(Cn1ncnn1)NC1CCN(c2c(F)cc3c(=O)c(C(=O)O)cn(C4CC4)c3c2Cl)C1 (centres undefined)
[1]
  IC50: > 1000 nM

## NC1CCN(c2c(F)cc3c(=O)c(C(=O)O)cn(C4CC4)c3c2Cl)C1 (centres undefined) [CLINAFLOXACIN]
Escherichia coli [3]
  MIC: 2 µg/mL (≈ 5.47 µM)
Staphylococcus aureus [4]
  MIC: 1 µg/mL (≈ 2.73 µM)
Escherichia coli [5]
  zone of inhibition at 80 µg/mL: 7 to 17 mm
Pseudomonas aeruginosa [6]
  zone of inhibition at 80 µg/mL: 22 to 23 mm
Salmonella [9]
  zone of inhibition at 80 µg/mL: 13 to 21 mm
Salmonella [10]
  MIC: 1 µg/mL (≈ 2.73 µM)
Staphylococcus aureus [11]
  zone of inhibition at 80 µg/mL: 22 mm
Pseudomonas aeruginosa [12]
  MIC: 0.125 µg/mL (≈ 0.342 µM)

## O=C(CCn1cnc2ccccc21)NC1CCN(c2c(F)cc3c(=O)c(C(=O)O)cn(C4CC4)c3c2Cl)C1 (centres undefined)
[1]
  IC50: > 1000 nM

## Cn1nnc(SCC(=O)NC2CCN(c3c(F)cc4c(=O)c(C(=O)O)cn(C5CC5)c4c3Cl)C2)n1 (centres undefined)
[1]
  IC50: > 1000 nM

## Cc1nnnn1CC(=O)NC1CCN(c2c(F)cc3c(=O)c(C(=O)O)cn(C4CC4)c3c2Cl)C1 (centres undefined)
[1]
  IC50: > 1000 nM

## Cc1nnn(CCC(=O)NC2CCN(c3c(F)cc4c(=O)c(C(=O)O)cn(C5CC5)c4c3Cl)C2)n1 (centres undefined)
[1]
  IC50: > 1000 nM

## Cc1cn(CC(=O)NC2CCN(c3c(F)cc4c(=O)c(C(=O)O)cn(C5CC5)c4c3Cl)C2)cn1 (centres undefined)
[1]
  IC50: > 1000 nM

## Nc1nnc(SCCC(=O)NC2CCN(c3c(F)cc4c(=O)c(C(=O)O)cn(C5CC5)c4c3Cl)C2)s1 (centres undefined)
[2]
  MIC: 3.9 µM (≈ 2.16 µg/mL)
[1]
  IC50: > 1000 nM
Escherichia coli [5]
  diameter of the inhibition zone (DIZ): inactive
Pseudomonas aeruginosa [6]
  diameter of the inhibition zone (DIZ): inactive
[7]
  inhibition of growth at 20 µM: 95.8%
[8]
  inhibition at 20 µM: -21.2%
Salmonella [9]
  diameter of the inhibition zone (DIZ): inactive
Staphylococcus aureus [11]
  diameter of the inhibition zone (DIZ): inactive
HeLa
  IC50: > 20000 nM

## Nc1nnn(CC(=O)NC2CCN(c3c(F)cc4c(=O)c(C(=O)O)cn(C5CC5)c4c3Cl)C2)n1 (centres undefined)
[1]
  IC50: > 1000 nM

## O=C(Cn1cnnn1)NC1CCN(c2c(F)cc3c(=O)c(C(=O)O)cn(C4CC4)c3c2Cl)C1 (centres undefined)
[1]
  IC50: > 1000 nM

## O=C(Cn1nccn1)NC1CCN(c2c(F)cc3c(=O)c(C(=O)O)cn(C4CC4)c3c2Cl)C1 (centres undefined)
[1]
  IC50: > 1000 nM

## COc1ccc2[nH]c(SCC(=O)NC3CCN(c4c(F)cc5c(=O)c(C(=O)O)cn(C6CC6)c5c4Cl)C3)nc2c1 (centres undefined)
[1]
  IC50: > 1000 nM
